Assay [1] deals with T1, Human immunodeficiency virus type 1 protease (Human immunodeficiency virus 1, UniProt Q72874). The experiment in a line: compound was evaluated for the inhibition of HIV-1 protease.
In assay [2] the target is T1, Human immunodeficiency virus type 1 protease. The experiment in a line: Compound was evaluated for its binding affinity against HIV-1 protease.

Regarding `OC[C@]12C3NC4[C@](CO)(C5NC1[C@]3(CO)[C@H](c1ccccc1)[C@@]45CO)[C@H]2c1ccccc1`, half-maximal inhibition in assay [1] (IC50) was put at 227 µM.

For `OC[C@]12C3N(Cc4ccccc4)C4[C@](CO)(C5N(Cc6ccccc6)C1[C@]3(CO)[C@H](c1ccccc1)[C@@]45CO)[C@H]2c1ccccc1`, in assay [2], the affinity corresponds to a Ki of 7.8 µM. The IC50 (in general, the point on the concentration scale where inhibition reaches its midpoint) in assay [1] is 16.1 µM.

As for `CN1C2[C@]3(CO)C4N(C)C5[C@@](CO)(C1[C@@]5(CO)[C@@H](c1ccccc1)[C@]24CO)[C@H]3c1ccccc1`, inhibition in assay [1] was half-maximal at 262 µM (IC50).

`COc1ccc([C@H]2[C@@]3(CO)C4N(Cc5ccccc5)C5[C@]2(CO)C2N(Cc6ccccc6)C3[C@]4(CO)[C@H](c3ccc(OC)cc3)[C@@]52CO)cc1` came in with an IC50 in assay [1] of 33 µM.

With `COc1ccc([C@H]2[C@]3(CO)C4NC5[C@@]2(CO)C2NC3[C@@]4(CO)[C@H](c3ccc(OC)cc3)[C@]52CO)cc1`, the midpoint of inhibition in assay [1], the IC50, lay at 209 µM.

Consider `COc1ccc([C@H]2[C@]3(CO)C4N(C)C5[C@]2(CO)C2N(C)C3[C@]4(CO)[C@H](c3ccc(OC)cc3)[C@]52CO)cc1`, for which, in assay [1], the IC50 worked out at 195 µM.

Values taken from ChEMBL document CHEMBL1132474, “Synthesis and biological evaluation of the first N-alkyl cage dimeric 4-aryl-1,4-dihydropyridines as novel nonpeptidic HIV-1 protease inhibitors” (J Med Chem, 1999).
